Experimental data reported in patent US6930131B2, “Aryl substituted 3-ethoxy phenyl trifluoromethane sulfonamides for the treatment of non-insulin dependent diabetes mellitus (NIDDM)” (Wyeth, priority 2002, dated 2005).
pIC50: −log10 of the molar value.

What was measured:
[1] = test system: Hepatocytes Isolated and Cultured from Obese Zucker (fa/fa) Rats; test: Inhibition of glucose output from hepatocytes isolated and cultured from obese Zucker (fa/fa) rats; assay type: cell-based, rat; conditions: Rattus norvegicus, Hepatocyte; inhibition of glucose output vs glucagon stimulated cultured hepatocytes
Experimental: Inhibition of Glucose Output from Hepatocytes Isolated and Cultured from Obese Zucker (fa/fa) Rats and their Lean Controls
Culturing of Hepatocytes: Isolated hepatocytes were plated on 12 well rat-tail collagen coated plates at a cell density of 5×10(5) cells/ml (approximately 1 ml of cell suspension per well). Following a one hour attachment period in which plates were incubated in a CO2 incubator at 37 deg C. (95% O2, 5% CO2), the supernatant containing unattached hepatocytes was removed and replaced with fresh media (1 ml/well) containing 1 μM dexamethasone and 100 pM insulin. Cells were maintained at 37 deg C. for 48 hours in a 95% O2, 5% CO2 environment. At the end of the first 24 hours, the media was aspirated off of the wells and replaced with fresh media containing the same concentrations of dexamethasone and insulin as described earlier. Treatment with Drugs and Assessment of Glucose Output: Drugs were routinely added with fresh media 24 hours after the initial attachment period. Eighteen hours later, media was aspirated and 500 μl of fresh Hank's buffer, Buffer D (glucose-free) supplemented with hormones, gluconeogenic substrates and drug(s) was added to each well and incubated for 4 hours. At the end of the 4 hour incubation, media from each well was removed and assayed for glucose content using the hexokinase/glucose-6-phosphate dehydrogenase coupled assay on the Boehringer Mannheim model 911 auto analyzer. Glucose concentration was expressed as μg/ml. Three of the plates from each treated group were frozen for subsequent determination of protein content. Two plates from each treatment group were used to assess the cytotoxicity of drug(s) and other agents as determined by the MTT (tetrazolium) dye reduction method (see below).
Assessment of Cytotoxicity using MTT Dye Reduction Assay: Two plates with no insulin treatment and two plates with 10^−8 M insulin treatment were used for the MTT dye reduction assay. Following removal of media from the plates for measurement of glucose output, wells were washed once with 1 ml of Hank's buffer (0.5% BSA). Aliquots of […] of Hank's buffer (1.1% BSA) and […] MTT solution (5 mg MTT/ml in phosphate buffered saline (PBS) filtered through 0.45 micron syringe filter) were added to each well. Plates were incubated for one hour at 37 deg C. After one hour incubation, the MTT dye solution was aspirated off and […] of HCL/isopropanol solution (8 ml of 1 N HCL and 192 ml of isopropanol) was added to each well. HCL/isopropanol solution was mixed by drawing liquid into a pipetman 2 to 3 times and then carefully transferred into a 96 well flat bottom plate. The 96 well plate was read on a plate reader (UV max kinetic microplate reader, Molecular Devices) at 570 nm test wavelength and 650 nm reference wavelength. The results were expressed as % inhibition from the control (lactate and glucagon treated) well.
Protein test procedure: Three plates with no insulin treatment and three plates with 10^−8 M insulin treatment were used for protein determination. After supernatant has been removed for determination of glucose output the plates were frozen and stored at −20 deg C. until ready to assay for protein content. Prior to determination of protein the plates were defrosted at room temperature for 15 minutes. An aliquot of 1 ml 0.1 N NaOH was added to each well. Plates were incubated at 4 deg C. overnight. Solutions for measurement of protein content were mixed by pipetting the NaOH solution up and down several time with a 1 ml pipette and then transferring to a small polyethylene tube. Protein determination was based on that of the Pierce BCA protein assay protocol (Pierce cat. no. 23223). A set of protein standards (0.2, 0.4, 0.6, 0.8, and 1 mg/ml BSA) was prepared by serial dilution of 1 mg/ml bovine serum albumin with 0.1 N NaOH, and 40 μl of each standard, or control blank was pipetted into a 96-well plate in duplicate. Each unknown protein sample (40 μl) was tested in triplicate. […]

ob/ob (C57 B1/6J) mice [2] = test: Hypoglycemic effect in diabetic ob/ob mice; assay type: in vivo, mouse
Experimental: Hypoglycemic Effect in Diabetic OB/OB Mice
Procedure: In each study, male or female ob/ob (C57 B1/6J) mice and their mean litermates (ob/+ or +/+, Jackson Laboratories) ages 2 to 5 months (10 to 65 g) were randomized according to plasma glucose into 4 groups of 10 mice. The mice were housed 5 per cage and were maintained on normal rodent chow with water ad libitum. Mice receive compound daily by gavage (suspended in 0.5 ml of 0.5% methyl cellulose); dissolved in the drinking water; or admixed in the diet. The dose of compounds given ranges from 2.5 to 200 mg/kg body weight/day. Body weight of fed animals was measured at the beginning of each week and doses for the entire week were calculated using this weight and were expressed in terms of the active moiety of the compound. Control mice receive vehicle only. […]
Measurements: The plasma was isolated by centrifugation and the concentration of glucose was measured enzymatically on an Abbott V. P. Analyzer and the plasma concentration of insulin was determined by radioimmunoassay (Heding, 1972)
Analysis of variance followed by Dunnett's Comparison Test (one-tailed) was used to estimate the significant difference between the plasma glucose values from the control group and the individual compound treated groups (CMS SAS Release 5.18). A compound will be considered active if the difference has a p<0.05.

ob/ob (C57 B1/6J) mice [3] = conditions: reference compound, 20 mg/kg/day; cited from earlier work

O=S(=O)(Nc1cccc(CCOCc2ccc(-c3ccc(Cl)c(Cl)c3)cc2)c1)C(F)(F)F [Example 6, N-{3-[2-(3′,4′-Dichloro-biphenyl-4-ylmethoxy)-ethyl]-phenyl}-C,C,C-trifluoro-methanesulfonamide]
pIC50 [1]: 5.64 | Reduction in Plasma Glucose Day 1 (6 hr) p.o. (ob/ob (C57 B1/6J) mice [2]; 5 mg/kg p.o.): −16% | Reduction in Plasma Glucose Day 3 (6 hr) p.o. (ob/ob (C57 B1/6J) mice [2]; 5 mg/kg p.o.): −24% | melting point: 74 to 75 °C

O=S(=O)(Nc1cccc(CCOCc2ccc(-c3ccc(Cl)cc3)cc2)c1)C(F)(F)F [Example 7, N-{3-[2-(4′-Chloro-biphenyl-4-ylmethoxy)-ethyl]-phenyl}-C,C,C-trifluoromethane sulfonamide]
pIC50 [1]: 5.60 | Reduction in Plasma Glucose Day 1 (6 hr) p.o. (ob/ob (C57 B1/6J) mice [2]; 5 mg/kg p.o.): −8% | Reduction in Plasma Glucose Day 3 (6 hr) p.o. (ob/ob (C57 B1/6J) mice [2]; 5 mg/kg p.o.): −22% | melting point: 69 to 70 °C

O=S(=O)(Nc1cccc(CCOCc2csc(-c3ccc(Cl)cc3)n2)c1)C(F)(F)F [Example 53, N-(3-{2-[2-(4-Chloro-phenyl)-thiazol-4-ylmethoxy]-ethyl}-phenyl)-C,C,C-trifluoro-methanesulfonamide]
pIC50 [1]: 5.00 | Reduction in Plasma Glucose Day 1 (6 hr) p.o. (ob/ob (C57 B1/6J) mice [2]; 10 mg/kg p.o.): −36% | Reduction in Plasma Glucose Day 3 (6 hr) p.o. (ob/ob (C57 B1/6J) mice [2]; 10 mg/kg p.o.): −26% | melting point: 114 to 116 °C

COc1cc(COCCc2cccc(NS(=O)(=O)C(F)(F)F)c2)ccc1-c1ccc(Cl)cc1 [Example 88, N-{3-[2-(4′-Chloro-2-methoxy-biphenyl-4-ylmethoxy)-ethyl]-phenyl}-C,C,C-trifluoromethane sulfonamide]
pIC50 [1]: 5.40 | Reduction in Plasma Glucose Day 1 (6 hr) p.o. (ob/ob (C57 B1/6J) mice [2]; 25 mg/kg p.o.): −71 | Reduction in Plasma Glucose Day 3 (6 hr) p.o. (ob/ob (C57 B1/6J) mice [2]; 25 mg/kg p.o.): −29 | melting point: 88 to 90 °C

sodium metavanadate
lowering in plasma glucose (ob/ob (C57 B1/6J) mice [3]): significant lowering in plasma glucose
